# In patent publication US20210161877A1, “GASTROPROTECTED, HYDROPHOBIC FORMULATION OF AT LEAST ONE ACTIVE PRINCIPLE AND METHOD FOR OBTAINING SAME” (priority 2018, published 2021):
# Key:
# [1] = Test of gastroprotection and preliminary bioavailability on animals (oral administration); details: rat, in vivo, fasted male Sprague-Dawley rats, 40 mg/kg of BZ
# Method: Test of gastroprotection and preliminary bioavailability on animals. In this test, the protective capacity of the BZ-AT formulation according to the invention as described in this example and of an unprotected form of BZ are compared.
# Each formulation is administered orally to male Sprague-Dawley rats weighing between 175-250 g. Tests are performed with pure BZ and the BZ-AT form taken up at 10 mg/ml in the following aqueous solution:
# The volume that may be administered is adjusted as a function of each animal to enable a dose of 4 mL/kg to be achieved, i.e. 40 mg/kg of BZ. The administration is performed orally on the fasted animal.
# [2] = Stability of the particles in 0.1 N hydrochloric acid solution, HPLC assay; format: physicochemical; details: 0.1 N HCl medium at 25° C., 500 ml, 20 mg of BZ, 120 minutes of incubation; percentage of the initial dose
# Method: Measurement of the stability of the particles in 0.1 N hydrochloric acid solution, via an HPLC assay method: • Column (ProntoSlL, Bischoff, Germany): C18, 5 μm, 120 Å, 4.6×150 mm, • Mobile phase: methanol, 65%/10 mM Na2HPO4, 35%, • Flow rate: 1.00 mL/min, • Temperature: 20° C. (thermostat), • Detection: UV (λ=310 nm) • Injection volume: 20 μL.
# The stability is measured in 0.1 N HCl medium at 25° C., for a volume of 500 ml and 20 mg of BZ. The results collated in FIG. 2 are expressed as a percentage of the initial dose.
smiles,measurement,setting,value
"COCCCOc1ccnc(C[S+]([O-])c2nc3ccccc3[nH]2)c1C (stereo not shown) [BZ, 2-([4-(3-methoxypropoxy)-3-methylpyridin-2-yl]methylsulfinyl)-1H-benzo[d]imidazole]",AUC,[1],< 5 ng·h/mL
same,Cmax,[1],2.54 ng/mL
same,Tmax,[1],48 min
same,degradation,[2],100%
